Reference: patent publication US8802597B2, “Herbicidal pyrimidines” (E I du Pont de Nemours and Company, priority 2003, dated 2014)

How the values were obtained:
Type in all cases: in vivo
wild oat (Avena fatua) = assay: Test B postemergence
How it was run: (§1)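 Formulation: non-phytotoxic solvent blend with surfactant. Timing: preemergence on seeds, postemergence at 1- to 4-leaf (2–18 cm). Assessment: visual, 0–100 against controls, after 13–15 days' greenhouse growth.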

[1] = system: blackgrass (Alopecurus myosuroides); assay: Test B postemergence
How it was run: as §1

[2] = system: cocklebur (Xanthium strumarium); assay: Test B pre/postemergence
How it was run: as §1

[3] = system: pigweed (Amaranthus retroflexus); assay: Test B pre/postemergence
How it was run: as §1

[4] = system: wheat (Triticum aestivum); assay: Test B pre/postemergence
How it was run: as §1

[5] = system: velvetleaf (Abutilon theophrasti); assay: Test B pre/postemergence
How it was run: as §1

[6] = system: barnyardgrass (Echinochloa crus-galli); assay: Test B pre/postemergence
How it was run: as §1

corn (Zea mays) = assay: Test B pre/postemergence
How it was run: as §1

[7] = system: giant foxtail (Setaria faberii); assay: Test B pre/postemergence
How it was run: as §1

[8] = system: crabgrass (Digitaria sanguinalis); assay: Test B pre/postemergence
How it was run: as §1

[9] = system: Surinam grass (Brachiaria decumbens); assay: Test B pre/postemergence; conditions: for Surinam Grass plant response rating: scale 0 to 100 (0 no effect, 100 complete control)
How it was run: as §1

[10] = system: morningglory (Ipomoea coccinea); assay: Test B pre/postemergence
How it was run: as §1

[11] = system: lambsquarters (Chenopodium album); assay: Test B pre/postemergence
How it was run: as §1

[12] = system: umbrella sedge (Cyperus difformis); assay: Test B flooded paddy test; conditions: Flood, 1000 g ai/ha; scale 0 to 100
How it was run: (§2)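 Plants were grown to the 2-leaf stage before treatment, then kept in a greenhouse for 13 to 15 days. Injury was rated visually against untreated controls on a 0 to 100 scale, where 0 is no effect and 100 is complete control.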

rice (Oryza sativa) = assay: Test B flooded paddy test; conditions: Flood, 1000 g ai/ha; scale 0 to 100
How it was run: as §2

[13] = system: barnyardgrass (Echinochloa crus-galli); assay: Test B flooded paddy test; conditions: Flood, 1000 g ai/ha; scale 0 (no effect) to 100 (complete control)
How it was run: as §2

[14] = system: duck salad (Heteranthera limosa); assay: Test B flooded paddy test; conditions: Flood, 1000 g ai/ha; scale 0 to 100
How it was run: as §2

[15] = 125 g ai/ha, scale 0 to 100 (0 no effect, 100 complete control)
[16] = Postemergence, 125 g ai/ha, scale 0 to 100 (0 no effect, 100 complete control)
[17] = Postemergence, 500 g ai/ha, scale 0 to 100
[18] = Preemergence, 125 g ai/ha, scale 0 to 100 (0 no effect, 100 complete control)
[19] = Preemergence, 500 g ai/ha, scale 0 to 100 (0 no effect, 100 complete control)

COC(=O)c1nc(C2CC2C)nc(N)c1Br (stereo not drawn) [Compound 28]
Oat, Wild plant response rating (wild oat (Avena fatua); [15]): 0 | Plant response rating, Oat, Wild (wild oat (Avena fatua); 500 g ai/ha, scale 0 to 100): 10 | Blackgrass plant response rating [1, 15]: 10 | Plant response rating, Blackgrass ([1]; 500 g ai/ha, scale 0 to 100): 30 | Cocklebur plant response rating [2, 16]: 90 | Plant response rating, Cocklebur [2, 17]: 100 | Plant response rating, Cocklebur [2, 18]: 80 | Cocklebur plant response rating [2, 19]: 90 | Pigweed plant response rating [3, 16]: 80 | Plant response rating, Pigweed [3, 17]: 90 | Plant response rating, Pigweed [3, 18]: 80 | Pigweed plant response rating [3, 19]: 90 | Wheat plant response rating [4, 16]: 0 | Plant response rating, Wheat [4, 17]: 10 | Plant response rating, Wheat [4, 18]: 10 | Wheat plant response rating [4, 19]: 40 | Velvetleaf plant response rating [5, 16]: 70 | Plant response rating, Velvetleaf [5, 17]: 90 | Plant response rating, Velvetleaf [5, 18]: 80 | Velvetleaf plant response rating [5, 19]: 90 | Barnyardgrass plant response rating [6, 16]: 20 | Plant response rating, Barnyardgrass [6, 17]: 50 | Plant response rating, Barnyardgrass [6, 18]: 10 | Barnyardgrass plant response rating [6, 19]: 30 | Corn plant response rating (corn (Zea mays); [16]): 0 | Plant response rating, Corn (corn (Zea mays); [17]): 0 | Plant response rating, Corn (corn (Zea mays); [18]): 0 | Corn plant response rating (corn (Zea mays); [19]): 0 | Foxtail, Giant plant response rating [7, 16]: 20 | Plant response rating, Foxtail, Giant [7, 17]: 40 | Plant response rating, Foxtail, Giant [7, 18]: 30 | Foxtail, Giant plant response rating [7, 19]: 50 | Crabgrass plant response rating [8, 16]: 30 | Plant response rating, Crabgrass [8, 17]: 50 | Plant response rating, Crabgrass [8, 18]: 70 | Crabgrass plant response rating [8, 19]: 80 | Surinam Grass plant response rating ([9]; Postemergence, 125 g ai/ha): 10 | Plant response rating, Surinam Grass [9, 17]: 50 | Surinam Grass plant response rating ([9]; Preemergence, 500 g ai/ha): 60 | Morningglory plant response rating [10, 16]: 90 | Plant response rating, Morningglory [10, 17]: 90 | Plant response rating, Morningglory [10, 18]: 80 | Morningglory plant response rating [10, 19]: 90 | Lambsquarters plant response rating [11, 16]: 90 | Plant response rating, Lambsquarters [11, 17]: 90 | Plant response rating, Lambsquarters [11, 18]: 80 | Lambsquarters plant response rating [11, 19]: 100 | Plant response rating, Sedge, Umbrella [12]: 0 | Plant response rating, Rice (rice (Oryza sativa)): 0 | Plant response rating, Barnyardgrass [13]: 0 | Plant response rating, Ducksalad [14]: 30
